# Results: ChEMBL document CHEMBL1131189, “Conformationally restricted analogues of 1N,12N-bisethylspermine: synthesis and growth inhibitory effects on human tumor cell lines” (1998)
# Assays:
# DU-145 [1] = assay: Growth inhibitory activity was measured for human DU145 tumor cell line.; format: functional; details: read-out: ID50 (the source's name)
# DU-145 [2] = assay: The concentration levels of spermidine (SD) evaluated in DU145 cells treated with the compound concentration of 5 uM on fifth day of treatment.; format: functional, cell-based; details: Homo sapiens
# DU-145 [3] = assay: The concentration levels of putrescine (PU) evaluated in DU145 cells treated with the compound concentration of 0.02 uM on third day of treatment.; format: functional, cell-based; details: Homo sapiens
# DU-145 [4] = assay: The concentration levels of putrescine (PU) evaluated in DU145 cells treated with the compound concentration of 0.02 uM on fifth day of treatment.; format: functional, cell-based; details: Homo sapiens
# DU-145 [5] = assay: The concentration levels of spermidine (SD) evaluated in DU145 cells treated with the compound concentration of 0.02 uM on fifth day of treatment.; format: functional, cell-based; details: Homo sapiens
# DU-145 [6] = assay: The concentration levels of spermidine (SD), evaluated in DU145 cells treated with the compound concentration of 0.02 uM on third day of treatment.; format: functional, cell-based; details: Homo sapiens
# DU-145 [7] = assay: The concentration levels of putrescine (PU) evaluated in DU145 cells treated with the compound concentration of 5 uM on fifth day of treatment.; format: functional, cell-based; details: Homo sapiens
# DU-145 [8] = assay: The concentration levels of analogue evaluated in DU145 cells treated with the compound concentration of 0.02 uM on fifth day of treatment.; format: functional, cell-based; details: Homo sapiens
# A549 = assay: Growth inhibitory activity was measured for human A549 tumor cell line.; format: functional; details: read-out: ID50 (the source's name)
# DU-145 [9] = assay: The concentration levels of analogue evaluated in DU145 cells treated with the compound concentration of 0.02 uM on third day of treatment.; format: functional, cell-based; details: Homo sapiens
# DU-145 [10] = assay: The concentration levels of spermine (SP), evaluated in DU145 cells treated with the compound concentration of 0.02 uM on third day of treatment.; format: functional, cell-based; details: Homo sapiens
# DU-145 [11] = assay: The concentration levels of spermidine (SD), evaluated in DU145 cells treated with the compound concentration of 5 uM on third day of treatment.; format: functional, cell-based; details: Homo sapiens
# DU-145 [12] = assay: The concentration levels of spermine (SP) evaluated in DU145 cells treated with the compound concentration of 5 uM on fifth day of treatment.; format: functional, cell-based; details: Homo sapiens
# DU-145 [13] = assay: The concentration levels of analogue evaluated in DU145 cells treated with the compound concentration of 5 uM on third day of treatment.; format: functional, cell-based; details: Homo sapiens
# DU-145 [14] = assay: The concentration levels of spermine (SP), evaluated in DU145 cells treated with the compound concentration of 5 uM on third day of treatment.; format: functional, cell-based; details: Homo sapiens
# DU-145 [15] = assay: The concentration levels of analogue evaluated in DU145 cells treated with the compound concentration of 5 uM on fifth day of treatment.; format: functional, cell-based; details: Homo sapiens
# DU-145 [16] = assay: The concentration levels of putrescine (PU) evaluated in DU145 cells treated with the compound concentration of 5 uM on third day of treatment.; format: functional, cell-based; details: Homo sapiens
# DU-145 [17] = assay: The concentration levels of spermine (SP) evaluated in DU145 cells treated with the compound concentration of 0.02 uM on fifth day of treatment.; format: functional, cell-based; details: Homo sapiens
# HT-29 = assay: Growth inhibitory activity was measured for human HT-29 tumor cell line.; format: functional; details: read-out: ID50 (the source's name)
# PC-3 = assay: Growth inhibitory activity was measured for human PC-3 tumor cell line.; format: functional; details: read-out: ID50 (the source's name)
# U-251 = assay: Growth inhibitory activity was measured for human U251MG NCI tumor cell line.; format: functional; details: read-out: ID50 (the source's name)
# MCF7 = assay: Growth inhibitory activity was measured for human MCF-7 tumor cell line.; format: functional; details: read-out: ID50 (the source's name)
smiles,measurement,setting,value
CCNCCCNC/C=C/CNCCCNCC,IC50,"DU-145 [1]; Homo sapiens, DU-145",0.14 µM
CCNCCCNC/C=C\CNCCCNCC,Concentration (nM (10e6*cells)-1),DU-145 [2],0.02
same,IC50,"DU-145 [1]; Homo sapiens, DU-145",0.05 µM
same,Concentration (nM (10e6*cells)-1),DU-145 [3],0.11
same,Concentration (nM (10e6*cells)-1),DU-145 [4],0.04
same,Concentration (nM (10e6*cells)-1),DU-145 [5],1.73
same,Concentration (nM (10e6*cells)-1),DU-145 [6],1.79
same,Concentration (nM (10e6*cells)-1),DU-145 [7],0.03
same,Concentration (nM (10e6*cells)-1),DU-145 [8],0.03
same,IC50,"A549; Homo sapiens, A549",0.25 µM
same,Concentration (nM (10e6*cells)-1),DU-145 [9],0.04
same,Concentration (nM (10e6*cells)-1),DU-145 [10],2.99
same,Concentration (nM (10e6*cells)-1),DU-145 [11],0.02
same,Concentration (nM (10e6*cells)-1),DU-145 [12],0.07
same,Concentration (nM (10e6*cells)-1),DU-145 [13],2.76
same,Concentration (nM (10e6*cells)-1),DU-145 [14],0.09
same,Concentration (nM (10e6*cells)-1),DU-145 [15],2.54
same,Concentration (nM (10e6*cells)-1),DU-145 [16],0.06
same,Concentration (nM (10e6*cells)-1),DU-145 [17],1.71
CCNCCCNCC1CC1CNCCCNCC (stereo in doubt; 5),IC50,DU-145 [1],0.06 µM
same,IC50,HT-29,1.4 µM
same,IC50,A549,0.25 µM
same,IC50,PC-3,12.4 µM
CCNCCCNCC1CC1CNCCCNCC (stereo in doubt; 9),IC50,U-251,0.1 µM
same,IC50,DU-145 [1],0.02 µM
same,IC50,A549,0.12 µM
CCNCCCNCC1CCC1CNCCCNCC (stereo in doubt; 15) [listing 1 of 2 here],IC50,U-251,0.12 µM
same,IC50,MCF7,> 31.2 µM
same,IC50,DU-145 [1],0.01 µM
same,IC50,"HT-29; Homo sapiens, HT-29",1.6 µM
CCNCCCNCC1CCC1CNCCCNCC (stereo in doubt; 15) [listing 2 of 2 here],Concentration (nM (10e6*cells)-1),DU-145 [2],0.06
same,Concentration (nM (10e6*cells)-1),DU-145 [3],0.162
same,Concentration (nM (10e6*cells)-1),DU-145 [4],0.081
same,Concentration (nM (10e6*cells)-1),DU-145 [5],1.6
same,Concentration (nM (10e6*cells)-1),DU-145 [6],2.13
same,Concentration (nM (10e6*cells)-1),DU-145 [7],0.031
same,Concentration (nM (10e6*cells)-1),DU-145 [8],0.05
same,Concentration (nM (10e6*cells)-1),DU-145 [9],0.07
same,Concentration (nM (10e6*cells)-1),DU-145 [10],3.54
same,Concentration (nM (10e6*cells)-1),DU-145 [11],0.15
same,Concentration (nM (10e6*cells)-1),DU-145 [12],0.2
same,Concentration (nM (10e6*cells)-1),DU-145 [13],1.75
same,Concentration (nM (10e6*cells)-1),DU-145 [14],0.49
same,Concentration (nM (10e6*cells)-1),DU-145 [15],1.84
same,Concentration (nM (10e6*cells)-1),DU-145 [16],0.036
same,Concentration (nM (10e6*cells)-1),DU-145 [17],2.1
CCNCCCNCC1CCC1CNCCCNCC (stereo in doubt; 19),IC50,DU-145 [1],0.05 µM
same,IC50,PC-3,> 31.2 µM
CCNCCCNCCCCNCCCNCC [BIS(ETHYL)SPERMINE],IC50,U-251,0.2 µM
same,IC50,MCF7,0.55 µM
same,IC50,"DU-145 [1]; Homo sapiens, DU-145",0.04 µM
same,IC50,"HT-29; Homo sapiens, HT-29",0.43 µM
same,IC50,"A549; Homo sapiens, A549",0.2 µM
same,IC50,"PC-3; Homo sapiens, PC-3",0.24 µM
